According to patent US10987343B2, “Compositions and methods for treating pulmonary diseases” (CASE WESTERN RESERVE UNIVERSITY, priority 2015, dated 2021):

Tests used:
CF mice [1] = assay: Survival and health of CF mice during the drug study; assay type: in vivo
Method: (§1) Drugs exist that are designed to specifically block the AGTR2 receptor, and we used one of these drugs to determine whether the same benefits may be achievable through pharmaceutical intervention. Briefly, CF mice were treated via subcutaneous injection of EMA200 (PD123319), available from Sigma Pharmaceuticals), at a dose of 2 mg/kg per day. The mice were treated from age 3 weeks through adulthood (16 weeks), 5 days per week. At 16 weeks, the pulmonary mechanics of the mice were assessed using the forced oscillation technique (FIG. 1).

CF mice [2] = assay: Pulmonary mechanics of CF mice by forced oscillation technique (FlexiVent) after treatment with AGTR2 blocker; assay type: in vivo; details: 2 mg/kg per day subcutaneous, 5 days per week, age 3 to 16 weeks, assessed at 16 weeks, 2 mg/kg/day
From the text: AGTR2 knockout mice (AT KO; dark grey bars) are indistinguishable from WT mice.
We recently used a forced mechanical oscillation procedure to evaluate pulmonary mechanics in CF mice (DF508 congenic C57bl/6). We determined that CF mice have decreased compliance and increased elastance of their overall respiratory system, along with altered airway tissue elastance, damping, and static compliance (FIG. 1). […] Taken together, these findings indicate increased impedance of the small airways in CF mice, as differences in CF mouse pulmonary mechanics were confined to the peripheral tissues, which include the distal airways and lung parenchyma itself. This is consistent with the pulmonary phenotype of CF patients, where significant increases in small airways resistance may occur even in patients with normal spirometry.
as §1

Structure (SMILES): Cc1cc(Cn2cnc3c2CC(C(=O)O)N(C(=O)C(c2ccccc2)c2ccccc2)C3)ccc1N(C)C (centres unmarked) [EMA200, 1-(4-Dimethylamino-3-methylphenyl)methyl-5-diphenylacetyl-4,5,6,7-tetrahy-dro-1H-imidazo[4,5-c]-pyridine-6-carboxylic acid]
- survival of CF mice (CF mice [1]; 6 CF mice, daily injections, saline controls 5/6 died): all survived
- general health appearance of CF mice (CF mice [1]; versus control untreated CF mice): appeared much healthier
- pulmonary mechanics / all aspects of pulmonary disease (respiratory system compliance and elastance, tissue damping, tissue elastance, static tissue compliance) (CF mice [2]): successfully restored/prevented all aspects of pulmonary disease in CF mice
- shape parameter (inhalation/exhalation curve shape, K) (CF mice [2]): not improved
- pulmonary mechanics / all aspects of pulmonary disease (respiratory system compliance and elastance, tissue damping, tissue elastance, static tissue compliance) (CF mice [2]; listed as AGTR2 inhibitor): improved pulmonary mechanics
